Measured values reported in patent US12128068B2, “Compositions and methods for dental mineralization” (The University of Melbourne, priority 2013, dated 2024).

Test: Remineralization of enamel subsurface lesions (transverse microradiography and densitometric image analysis)
Set-up: species or system Human
Settings: 1% v/v sodium hypochlorite for 1 min at start of CPP-ACP remineralization, versus CPP-ACP alone
Method: Human tooth enamel demineralized subsurface lesions were prepared using the method of Reynolds, (1997). J Dent Res 76:1587-1595. The enamel surface was removed by polishing to remove all adsorbed protein. This removed around 50-100 μm of enamel to expose an uncoated, polished enamel surface for the study. […] A 1% w/v CPP-ACP pH 5.0 solution was prepared using Recaldent® [Kraft Foods], a commercial source of CPP-ACP that is prepared as per Example 1 at a pH of 5.0. All blocks were remineralized with the 1% CPP-ACP pH 5 solution for 7 days at 37° C. However, half were exposed to a 1% v/v sodium hypochlorite solution for 1 min at the start of the CPP-ACP remineralization period. In other words, the sodium hypochlorite and CPP-ACP were simultaneously exposed to the subsurface lesion. After remineralization the enamel blocks were embedded, sectioned and subjected to transverse microradiography and densitometric image analysis as previously described by Reynolds (1997) to determine percent mineral content gain (% Remineralization) shown in Table 3.

Q: Which “increase of the level of remineralization by the CPP-ACP solution” value does the source give for `OCl` [hypochlorite, sodium hypochlorite] here?
A: Its value is 31%.
